Assay results taken from patent publication US20190374627A1, “TARGET PEPTIDES FOR CANCER THERAPY AND DIAGNOSTICS” (priority 2016, published 2019).
Square brackets hold non-standard residues; d marks the D form. Ends that are not written are not given here. Met(O) = CS(=O)CC[C@H](N)C(=O)O; pS = N[C@@H](COP(=O)(O)O)C(=O)O

Key:
CD8^+ T cells (PBMCs) = assay: Intracellular cytokine staining (ICS) of PBMCs after 7 days of stimulation with MHC-I-pP (healthy donors, HH patients); type: cell-based, human; conditions: for Reactive CD8^+ T cell population, HH2: HH patient HH2; for Reactive CD8^+ T cell population, HH3: HH patient HH3; for Reactive CD8^+ T cell population, HH6: HH patient HH6; for Reactive CD8^+ T cell population, HH8: HH patient HH8; for Reactive CD8^+ T cell population, HH11: HH patient HH11; for Reactive CD8^+ T cell population, HD1: Healthy donor HD1; for Reactive CD8^+ T cell population, HD4: Healthy donor HD4; for Reactive CD8^+ T cell population, HD5: Healthy donor HD5
Description: From this, CD8^+ T cell responses against newly identified MHC class I-associated phosphopeptides in healthy individuals and patients with chronic liver disease were investigated. Twenty-one of the newly identified HCC-associated HLA-A*0201-restricted phosphopeptides were selected (see Table 17) for further immunological testing in HLA-A*0201 positive patients. MHC-I-pP-specific cytotoxic CD8^+ T cell responses (ppCTL) were assessed using intracellular cytokine staining (ICS) and several cytokines and surface markers were assessed in parallel. After 7 days of stimulation with the respective MHC-I-pP and no other cytokines, CD3- and CD8-expressing T cells were stained for at least two different cytokines (IFN-γ, TNF-α) and when required CD107a expression as a marker for their cytotoxic potential.
First, peripheral blood mononuclear cells (PBMCs) from healthy donors and patients with hereditary hemochromatosis (HH) were analyzed. HH is a chronic liver disease characterized by excessive intestinal absorption of dietary iron resulting in a pathological deposition of iron in the liver. PBMCs or lymphocytes from liver tissue were extracted and specifically stimulated with (phospho-) peptides for 7 days before intracellular cytokine staining (ICS). Doublets and dead cells, using a fixable viability dye, were excluded. Lymphocytes were gated on CD3^+ and CD8^+ double positive cells and were analysed for expression of IFNγ, TNFα-, and CD107a.

[1] = system: unexpanded lymphocyte cultures (CD8^+ T cells); assay: ICS for MHC-I-pP reactivity of lymphocyte cultures without expansion (Table 23, No Expansion)
[2] = system: expanded TIL / IHL cultures; assay: ICS for MHC-I-pP reactivity of liver-derived lymphocyte cultures after unspecific rapid expansion protocol (REP); type: cell-based, human
[3] = system: expanded lymphocyte cultures from deceased donor livers, cirrhotic livers and HCC; assay: ICS for MHC-I-pP reactivity of liver-derived lymphocyte cultures after phosphopeptide-specific expansion; type: cell-based, human; conditions: for ppCTL response, Deceased Donor Liver Do 2 / ppCTL response, Deceased Donor Liver Do 3 / ppCTL response, Deceased Donor Liver Do 4 / ppCTL response, Deceased Donor Liver Do 6 / ppCTL response, End-stage Liver Cirrhosis IHL 11 / ppCTL response, End-stage Liver Cirrhosis IHL 12 / ppCTL response, End-stage Liver Cirrhosis IHL 13 / ppCTL response, End-stage Liver Cirrhosis IHL 15 / ppCTL response, HCC Distal HCC 1 / ppCTL response, HCC Tumor HCC 1 / ppCTL response, HCC Distal HCC 4 / ppCTL response, HCC Distal HCC 9 / ppCTL response, HCC Tumor HCC 9 / ppCTL response, HCC Distal HCC 12: pP-specifically expanded culture; for ppCTL response, HCC Distal HCC 1: HCC 1 Distal; for ppCTL response, HCC Tumor HCC 1: HCC 1 Tumor; for ppCTL response, HCC Distal HCC 4: HCC 4 Distal; for ppCTL response, HCC Distal HCC 9: HCC 9 Distal; for ppCTL response, HCC Tumor HCC 9: HCC 9 Tumor; for ppCTL response, HCC Distal HCC 12: HCC 12 Distal

| Substance | Reactive CD8^+ T cell population, HH2 (CD8^+ T cells (PBMCs)) | Reactive CD8^+ T cell population, HH3 (CD8^+ T cells (PBMCs)) | Reactive CD8^+ T cell population, HH6 (CD8^+ T cells (PBMCs)) | Reactive CD8^+ T cell population, HH8 (CD8^+ T cells (PBMCs)) | Reactive CD8^+ T cell population, HD1 (CD8^+ T cells (PBMCs)) | Reactive CD8^+ T cell population, HD4 (CD8^+ T cells (PBMCs)) | Reactive CD8^+ T cell population, HD5 (CD8^+ T cells (PBMCs)) | Reactive CD8^+ T cells, No Expansion, HH6 [1] | Reactive CD8^+ T cells, Non-specific Expansion, Do2 [2] | Reactive CD8^+ T cells, Non-specific Expansion, Do4 [2] | Reactive CD8^+ T cells, Non-specific Expansion, HH6 [2] | Reactive CD8^+ T cells, pP-specific Expansion, Do2 [3] | Reactive CD8^+ T cells, pP-specific Expansion, Do4 [3] | Reactive CD8^+ T cells, pP-specific Expansion, HH6 [3] | ppCTL response, Deceased Donor Liver Do 2 [3] | ppCTL response, Deceased Donor Liver Do 3 [3] | ppCTL response, Deceased Donor Liver Do 4 [3] | ppCTL response, Deceased Donor Liver Do 6 [3] | ppCTL response, End-stage Liver Cirrhosis IHL 11 [3] | ppCTL response, End-stage Liver Cirrhosis IHL 12 [3] | also measured |
| --- | --- | --- | --- | --- | --- | --- | --- | --- | --- | --- | --- | --- | --- | --- | --- | --- | --- | --- | --- | --- | --- |
| NLVPMVATV (Cytomegalovirus) [reference compound] | 4 (7.5-10% reactive CD8^-+ T cells) | 0 (<0.25% reactive CD8^-+ T cells) | 1 (0.25-2.5% reactive CD8^-+ T cells) | 1 (0.25-2.5% reactive CD8^-+ T cells) | 0 (<0.25% reactive CD8^-+ T cells) | 0 (<0.25% reactive CD8^-+ T cells) | 0 (<0.25% reactive CD8^-+ T cells) | 1 (0.25-2.5% reactive CD8^-+ T cells) | 0 (<0.25% reactive CD8^-+ T cells) | 5 (10-20% reactive CD8^-+ T cells) | 1 (0.25-2.5% reactive CD8^-+ T cells) | 3 (5-7.5% reactive CD8^-+ T cells) | 2 (2.5-5.0% reactive CD8^-+ T cells) | 3 (5-7.5% reactive CD8^-+ T cells) | 3 (5-7.5% reactive CD8-+ T cells) | 0 (<0.25% reactive CD8-+ T cells) | 2 (2.5-5.0% reactive CD8-+ T cells) | 0 (<0.25% reactive CD8-+ T cells) | 0 (<0.25% reactive CD8-+ T cells) | 0 (<0.25% reactive CD8-+ T cells) | Reactive CD8^+ T cell population, HH10 (CD8^+ T cells (PBMCs); HH patient HH10): 3 (5-7.5% reactive CD8^-+ T cells); Reactive CD8^+ T cell population, HH11 (CD8^+ T cells (PBMCs)): 0 (<0.25% reactive CD8^-+ T cells); Reactive CD8^+ T cell population, HD2 (CD8^+ T cells (PBMCs); Healthy donor HD2): 0 (<0.25% reactive CD8^-+ T cells); Reactive CD8^+ T cell population, HD3 (CD8^+ T cells (PBMCs); Healthy donor HD3): 0 (<0.25% reactive CD8^-+ T cells); Reactive CD8^+ T cells, No Expansion, Do4 ([1]; Do4): 2 (2.5-5.0% reactive CD8^-+ T cells); ppCTL response, End-stage Liver Cirrhosis IHL 13 [3]: 0 (<0.25% reactive CD8-+ T cells); ppCTL response, End-stage Liver Cirrhosis IHL 15 [3]: 0 (<0.25% reactive CD8-+ T cells); ppCTL response, HCC Distal HCC 1 [3]: 1 (0.25-2.5% reactive CD8-+ T cells); ppCTL response, HCC Tumor HCC 1 [3]: 0 (<0.25% reactive CD8-+ T cells); ppCTL response, HCC Distal HCC 4 [3]: 0 (<0.25% reactive CD8-+ T cells); ppCTL response, HCC Distal HCC 9 [3]: 0 (<0.25% reactive CD8-+ T cells); ppCTL response, HCC Tumor HCC 9 [3]: 0 (<0.25% reactive CD8-+ T cells); ppCTL response, HCC Distal HCC 12 [3]: 0 (<0.25% reactive CD8-+ T cells) |
| PmVTLsLNL (P[Met(O)]VTL[pS]LNL; listed as Homo sapiens) | 0 (<0.25% reactive CD8^-+ T cells) | 0 (<0.25% reactive CD8^-+ T cells) | 0 (<0.25% reactive CD8^-+ T cells) | 0 (<0.25% reactive CD8^-+ T cells) | 0 (<0.25% reactive CD8^-+ T cells) | 0 (<0.25% reactive CD8^-+ T cells) | 0 (<0.25% reactive CD8^-+ T cells) | 0 (<0.25% reactive CD8^-+ T cells) | 0 (<0.25% reactive CD8^-+ T cells) | 1 (0.25-2.5% reactive CD8^-+ T cells) | 0 (<0.25% reactive CD8^-+ T cells) | 2 (2.5-5.0% reactive CD8^-+ T cells) | 1 (0.25-2.5% reactive CD8^-+ T cells) | 0 (<0.25% reactive CD8^-+ T cells) | 2 (2.5-5.0% reactive CD8-+ T cells) | 0 (<0.25% reactive CD8-+ T cells) | 2 (2.5-5.0% reactive CD8-+ T cells) | 1 (0.25-2.5% reactive CD8-+ T cells) | 0 (<0.25% reactive CD8-+ T cells) | 0 (<0.25% reactive CD8-+ T cells) | ppCTL response, End-stage Liver Cirrhosis IHL 13 [3]: 0 (<0.25% reactive CD8-+ T cells); ppCTL response, End-stage Liver Cirrhosis IHL 15 [3]: 0 (<0.25% reactive CD8-+ T cells); ppCTL response, HCC Distal HCC 1 [3]: 0 (<0.25% reactive CD8-+ T cells); ppCTL response, HCC Tumor HCC 1 [3]: 0 (<0.25% reactive CD8-+ T cells); ppCTL response, HCC Distal HCC 4 [3]: 0 (<0.25% reactive CD8-+ T cells); ppCTL response, HCC Distal HCC 9 [3]: 0 (<0.25% reactive CD8-+ T cells); ppCTL response, HCC Tumor HCC 9 [3]: 0 (<0.25% reactive CD8-+ T cells); ppCTL response, HCC Distal HCC 12 [3]: 0 (<0.25% reactive CD8-+ T cells) |
| RLAsYLDRV: KRT18 phosphopeptide, HLA-A*0201 (RLA[pS]YLDRV; listed as Homo sapiens) | 3 (5-7.5% reactive CD8^-+ T cells) | 0 (<0.25% reactive CD8^-+ T cells) | 0 (<0.25% reactive CD8^-+ T cells) | 0 (<0.25% reactive CD8^-+ T cells) | 0 (<0.25% reactive CD8^-+ T cells) | 0 (<0.25% reactive CD8^-+ T cells) | 0 (<0.25% reactive CD8^-+ T cells) | 0 (<0.25% reactive CD8^-+ T cells) | 0 (<0.25% reactive CD8^-+ T cells) | 0 (<0.25% reactive CD8^-+ T cells) | 1 (0.25-2.5% reactive CD8^-+ T cells) | 0 (<0.25% reactive CD8^-+ T cells) | 0 (<0.25% reactive CD8^-+ T cells) | 0 (<0.25% reactive CD8^-+ T cells) | 0 (<0.25% reactive CD8-+ T cells) | 0 (<0.25% reactive CD8-+ T cells) | 0 (<0.25% reactive CD8-+ T cells) | 0 (<0.25% reactive CD8-+ T cells) | 0 (<0.25% reactive CD8-+ T cells) | 0 (<0.25% reactive CD8-+ T cells) | ppCTL response, End-stage Liver Cirrhosis IHL 13 [3]: 0 (<0.25% reactive CD8-+ T cells); ppCTL response, End-stage Liver Cirrhosis IHL 15 [3]: 0 (<0.25% reactive CD8-+ T cells); ppCTL response, HCC Distal HCC 1 [3]: 0 (<0.25% reactive CD8-+ T cells); ppCTL response, HCC Tumor HCC 1 [3]: 0 (<0.25% reactive CD8-+ T cells); ppCTL response, HCC Distal HCC 4 [3]: 0 (<0.25% reactive CD8-+ T cells); ppCTL response, HCC Distal HCC 9 [3]: 0 (<0.25% reactive CD8-+ T cells); ppCTL response, HCC Tumor HCC 9 [3]: 0 (<0.25% reactive CD8-+ T cells); ppCTL response, HCC Distal HCC 12 [3]: 0 (<0.25% reactive CD8-+ T cells) |
| RLSsPLHFV: FAM134A phosphopeptide, HLA-A*0201 (RLS[pS]PLHFV; listed as Homo sapiens) | 1 (0.25-2.5% reactive CD8^-+ T cells) | 0 (<0.25% reactive CD8^-+ T cells) | 0 (<0.25% reactive CD8^-+ T cells) | 0 (<0.25% reactive CD8^-+ T cells) | 0 (<0.25% reactive CD8^-+ T cells) | 0 (<0.25% reactive CD8^-+ T cells) | 0 (<0.25% reactive CD8^-+ T cells) | 0 (<0.25% reactive CD8^-+ T cells) | 0 (<0.25% reactive CD8^-+ T cells) | 0 (<0.25% reactive CD8^-+ T cells) | 0 (<0.25% reactive CD8^-+ T cells) | 0 (<0.25% reactive CD8^-+ T cells) | 0 (<0.25% reactive CD8^-+ T cells) | 0 (<0.25% reactive CD8^-+ T cells) | 0 (<0.25% reactive CD8-+ T cells) | 0 (<0.25% reactive CD8-+ T cells) | 0 (<0.25% reactive CD8-+ T cells) | 0 (<0.25% reactive CD8-+ T cells) | 0 (<0.25% reactive CD8-+ T cells) | 0 (<0.25% reactive CD8-+ T cells) | Reactive CD8^+ T cell population, HH11 (CD8^+ T cells (PBMCs)): 0 (<0.25% reactive CD8^-+ T cells); ppCTL response, End-stage Liver Cirrhosis IHL 13 [3]: 0 (<0.25% reactive CD8-+ T cells); ppCTL response, End-stage Liver Cirrhosis IHL 15 [3]: 0 (<0.25% reactive CD8-+ T cells); ppCTL response, HCC Distal HCC 1 [3]: 0 (<0.25% reactive CD8-+ T cells); ppCTL response, HCC Tumor HCC 1 [3]: 0 (<0.25% reactive CD8-+ T cells); ppCTL response, HCC Distal HCC 4 [3]: 0 (<0.25% reactive CD8-+ T cells); ppCTL response, HCC Distal HCC 9 [3]: 0 (<0.25% reactive CD8-+ T cells); ppCTL response, HCC Tumor HCC 9 [3]: 0 (<0.25% reactive CD8-+ T cells); ppCTL response, HCC Distal HCC 12 [3]: 0 (<0.25% reactive CD8-+ T cells) |
